Measurements published in patent publication US20100041756A1, “METHOD OF MODULATING B CELL FUNCTIONING” (priority 2004, published 2010).

Key:
Type in all cases: cell-based, mouse
[1] = tested on: B cells stimulated with anti-CD40; assay: Purified B cell proliferation, anti-CD40, 3H-thymidine incorporation (Example 4)
Procedure: (§1) FIG. 10 is a graphical representation depicting that 3,4-DAA and 3-HAA inhibit B and T cell proliferation in vitro. Purified B and T cells were stimulated for 72 h with anti-CD40 (a), or anti-CD3/anti-CD28 (b) respectively, in the presence of varying doses of 3,4-DAA, or 3-HAA.
(§2) A single cell suspension was prepared from spleen by mincing through a cell strainer, and erythrocytes were lysed using an ammonium chloride solution (Sigma, St Louis, Mo., USA). B cells were positively enriched by using anti-IgM MACS microbeads, and T cells were positively enriched using anti-CD4 MACS microbeads and the MACS system, according to the manufacturer's guidelines (Miltenyi Biotec, Bergisch Gladbach, Germany). Purity was assessed by flow cytometric analysis (B cell>90% CD19+, T cell>90% CD4+). Cells were cultured at 5×10^5 cells/ml in 200 μl complete RPMI, as above, in a flat bottom 96-well plate and cultured for 72 h. B cells were stimulated with anti-CD40 monoclonal antibody (10 μg/ml; BD), and T cells were stimulated with 5 μg/ml plate-bound anti-CD3 (BD), 5 μg/ml soluble anti-CD28 (BD). Tranilast, 3-HAA, or vehicle (DMSO) were incubated at concentrations stated with the cultures. 48 hours after stimulation, 100 μl culture medium was collected, and cells were pulsed with 1 μCi ^3H thymidine per well for 18 h. Cells were then harvested and plates assessed for incorporation. Each assay was performed on a minimum of 3 occasions. Data shown is of one representative experiment, and is expressed as mean+/−SD of triplicate in culture. IFN-γ, IL-10 and IL-5 levels was assessed in the culture medium by ELISA, as above.

[2] = tested on: T cells stimulated with anti-CD3/anti-CD28; assay: Purified T cell proliferation, anti-CD3/anti-CD28, 3H-thymidine incorporation (Example 4)
Procedure: as §1, §2

[3] = tested on: T cells stimulated with anti-CD3/anti-CD28; assay: Cytokine production by stimulated T cells in vitro (ELISA)
Procedure: as §1, §2

`Nc1c(O)cccc1C(=O)O` [3-HAA, 3-Hydroxyanthranilic acid] was tested, and the IC50 ([1]; Mus musculus, B-cell, anti-CD40, 72 h, 3H-thymidine (FIG. 10A), read-out: IC50 for inhibition of B cell proliferation) was 64.7 µM, the B cell proliferation ([1]; anti-CD40, varying doses (FIG. 10A)) was “dose-dependently inhibited” and the IC50 ([2]; Mus musculus, T-cell, anti-CD3/CD28, 72 h, 3H-thymidine (FIG. 10B), read-out: IC50 for inhibition of T cell proliferation) was 100 µM. The T cell proliferation ([2]; anti-CD3/CD28, varying doses (FIG. 10B)) was “dose-dependently inhibited”, the “IFN-γ production by T-cells” value ([3]; FIG. 10C) was “dose-dependently reduced” and the “IL-10 production by T-cells” value ([3]; FIG. 10D) was “increased”. The “IL-5 production by T-cells” value ([3]; FIG. 10E) was “increased”.
